The results in this text go back to the supplement of paper PMC5412046.

Counter-ions that a name gives are not always drawn.

The test system of experiment [1] is SB.mhdgc-1. Description: area under the dose-response curve of % viability (trapezoidal, 11 doses) (% viability x log10 concentration); higher = less cytotoxic. Particulars: SB.mhdgc-1 (hereditary c.1380delA CDH1 gastric cancer). Put shortly:
(§1)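 Reported here is DMSO-normalised viability, either at the highest concentration or as a trapezoidal area under the curve. Hereditary or sporadic patient-derived gastric cancer cells received compound by pintool at 11 threefold-diluted concentrations and were read with CellTiter-Glo after 48 h.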

Experiment [2] relates to SB.msgc-1. Described as above. The note with it: SB.msgc-1 (sporadic gastric cancer). In short, it runs like this: as §1
The test system of experiment [3] is SB.mhdgc-1. Description: viability at highest tested concentration (MAXR) relative to DMSO; higher = less cytotoxic. The note with it: SB.mhdgc-1 (hereditary c.1380delA CDH1 gastric cancer). In short, it runs like this: as §1
In experiment [4] the test system is SB.msgc-1. The description is as above. Particulars: SB.msgc-1 (sporadic gastric cancer). Put shortly: as §1

The term viability denotes a read-out of living cells in per cent, often relative to untreated cells. As for `CC(C)Cc1ccc(C(C)C(=O)O)cc1` (configuration not stated) [Ibuprofen lysine] (top concentration 23.0415 µM), the “area under the dose-response curve” value turned out to be 508 in the experiment on SB.mhdgc-1 [1] and 408 in the experiment with SB.msgc-1 [2]. In addition, the figures for the viability in the experiment on SB.mhdgc-1 [3] and in the experiment on SB.msgc-1 [4] were 129% and 81.2%, respectively.
The corresponding values for `Cn1c(=O)n(-c2ccc(C(C)(C)C#N)cc2)c2c3cc(-c4cnc5ccccc5c4)ccc3ncc21` [BEZ235] (top concentration 46.0829 µM) are 345, 425, 26.5% and 47.4%.
In the same order, the values of `Cc1ncc([N+](=O)[O-])n1CC(C)O` (configuration not stated) [Secnidazole] (top concentration 46.0829 µM) are 513, 507, 90.1% and 86.5%.
In the case of `O=C1CCC[C@@H]2[C@H]3CCC[N+]4([O-])CCC[C@@H](CN12)[C@@H]34` (some centres not stated) [Oxymatrine] (top concentration 46.0829 µM), the “area under the dose-response curve” value in the experiment with SB.mhdgc-1 [1] was 504; with SB.msgc-1 [2], 525. Besides, the viability with SB.mhdgc-1 [3] was determined as 134%; in the experiment on SB.msgc-1 [4], 122%.
`C[C@@H](c1ncncc1F)[C@](O)(Cn1cncn1)c1ccc(F)cc1F` [Voriconazole] (top concentration 46.0829 µM): the “area under the dose-response curve” value was 558 in the experiment on SB.mhdgc-1 [1] and 523 in the experiment with SB.msgc-1 [2]. Also, the results for the viability in the experiment with SB.mhdgc-1 [3] and with SB.msgc-1 [4] were 97.7% and 89.1%, respectively.
In the same order, the values of `C#CCN[C@@H]1CCc2ccccc21.CS(=O)(=O)O` [Rasagiline mesilate] (top concentration 46.0829 µM) are 574, 532, 139% and 101%.
In the case of `C=CC(=O)Nc1ccc2ncnc(Nc3ccc(OCc4cccc(F)c4)c(Cl)c3)c2c1` [AST-1306] (top concentration 46.0829 µM), the “area under the dose-response curve” value in the experiment on SB.mhdgc-1 [1] was 314; in the experiment with SB.msgc-1 [2], 183. For the same molecule, the viability with SB.mhdgc-1 [3] worked out at 1.47%; with SB.msgc-1 [4], 10.9%.
The corresponding values for `NCCCC(N)(C(=O)O)C(F)F` (configuration not stated) [Eflornithine Hydrochloride] (top concentration 46.0829 µM) are 485, 528, 54.1% and 52.8%.
In the same order, the values of `O=C1C(CCC(O)c2ccc(F)cc2)C(c2ccc(O)cc2)N1c1ccc(F)cc1` (configuration not stated) [Ezetimibe] (top concentration 46.0829 µM) are 534, 534, 103% and 94.6%.
In the same order, the values of `CCc1ccc(CCOc2ccc(CC3SC(=O)NC3=O)cc2)nc1` (configuration not stated) [Pioglitazone HCl] (top concentration 46.0829 µM) are 579, 506, 112% and 91.4%.
With `COC(=O)/C=C/C(=O)OC` [Dimethyl fumarate] (top concentration 46.0829 µM), the “area under the dose-response curve” value in the experiment on SB.mhdgc-1 [1] was 302; with SB.msgc-1 [2] it was 416. The results for the viability in the experiment with SB.mhdgc-1 [3] and in the experiment on SB.msgc-1 [4] were 20.6% and 66.6%, respectively.
The corresponding values for `COc1cc([C@@H]2c3cc4c(cc3[C@H](O)[C@H]3COC(=O)[C@@H]23)OCO4)cc(OC)c1OC` [Picropodophyllin] (top concentration 46.0829 µM) are 381, 353, 45.9% and 40.5%.
In the same order, the values of `CCC1=C2CN3C(=O)\C4=C(/C=C3/C2=NC5=CC=C(O)C=C15)[C@@](O)(CC)C(=O)OC4` [SN-38] (top concentration 46.0829 µM) are 227, 265, 57.1% and 25%.
In the same order, the values of `COc1ccc(C(CN(C)C)C2(O)CCCCC2)cc1` (configuration not stated) [Venlafaxine hydrochloride] (top concentration 46.0829 µM) are 519, 516, 90.6% and 81.9%.
On to `Cn1c(CCCC(=O)O)nc2cc(N(CCCl)CCCl)ccc21` [Bendamustine] (top concentration 46.0829 µM), for which the figures for the “area under the dose-response curve” value in the experiment with SB.mhdgc-1 [1] and in the experiment with SB.msgc-1 [2] were 542 and 541, respectively. The results for the viability in the experiment on SB.mhdgc-1 [3] and in the experiment on SB.msgc-1 [4] were 60.2% and 84.1%, respectively.
In the same order, the values of `Cc1ccccc1C(OCCN(C)C)c1ccccc1` (configuration not stated) [Orphenadrine hydrochloride] (top concentration 46.0829 µM) are 502, 537, 117% and 111%.
In the same order, the values of `CCCCCCCCCCCCc1ccc([S+](=O)([O-])Nc2nncs2)cc1` [PHT-427] (top concentration 46.0829 µM) are 512, 502, 78.6% and 96.5%.
Consider `O=C1Nc2ccccc2/C1=C1\Nc2ccccc2C1=O` [Indirubin] (top concentration 46.0829 µM), for which the “area under the dose-response curve” value was found to be 345 in the experiment on SB.mhdgc-1 [1] and 473 in the experiment on SB.msgc-1 [2]. Further, the viability in the experiment with SB.mhdgc-1 [3] amounted to 48%; in the experiment on SB.msgc-1 [4], 57.6%.
